One assay deals with T1, human RAGE (Homo sapiens, UniProt Q15109).
T1 construct: human RAGE plasmid (including full-length human RAGE cDNA); expressed in transfected cells; host or cells: C6 glioma cells carrying pNF-κB-Luc plasmid and human RAGE plasmid
In words: RAGE antagonist activity of reaction samples (37° C., 42 days) mixed with AGE-BSA, NF-κB luciferase assay in C6 glioma cells. It is filed as cell-based, rat C6 glioma cells expressing human RAGE. The procedure: Amino acid, carbohydrates and a phosphate buffer solution were charged in a 50 mL polypropylene centrifuge tube in each amount shown in Table 10, followed by sealing and stirring, and then the mixture was reacted in an incubator at 37° C. for 42 days. Next, the reactant was filtered through a 0.2 μm filter and the obtained filtrate was used as a sample. Amino acid and carbohydrates used are as follows:
Using Luciferase Assay System (manufactured by Promega Corporation), evaluation of RAGE antagonist activity was performed. (Day 1) According to the methods disclosed in Diabetes, 2006, vol. 55, pp. 2510-2522, C6 glioma cells into which pNF-κB-Luc plasmid (manufactured by Stratagene Corporation) and human RAGE plasmid (including full-length human RAGE cDNA) have been introduced were seeded at 100 μL/well into a 96-well plate and cultured in a CO2 incubator until the cells were confluent. For the culture, 10% FBS/DMEM medium was used. (Day 2) The medium was removed, and after wells were washed with 300 μL of serum-free DMEM medium, 100 μL of 0.1% FBS/DMEM medium was slowly added. Then, the medium was incubated overnight in a CO2 incubator. (Day 3) The sample was diluted using the medium, and 50 μL of the diluted sample, AGE-BSA in which AGE was formed with glyceraldehydes (50 μg/mL) as a control, and the mixture of diluted sample and AGE-BSA were added to wells. After incubation in a CO2 incubator for 4 hours, the medium was removed and wells were washed 2 times with 300 μL of PBS (−). Then, 25 μL of 1× lysis buffer was added on ice. After the plate was shaken for 15 seconds, 20 μL of lysate was charged in a new white plate. Further 100 μL of a luciferase assay reagent was added, and a […] was measured by a luminometer. Using 5 μL of lysate, quantitative determination of protein was also performed.
Biological proteins, carbohydrates and a phosphate buffer solution are charged in a 50 mL polypropylene centrifuge tube in each amount shown in Table 12, followed by sealing and stirring, and then the mixture was reacted in an incubator at 37° C. for 42 days. Next, the reactant was fractionated by centrifugation at 3,000 rpm for 3 hours using an ultrafiltration unit (VIVA SPIN 20, manufactured by Sartorius Corporation). The obtained low molecular weight fraction was used as a sample for determination of 3-DG, while the obtained high molecular weight fraction was used as a sample for the determination of fluorescent AGEs, pentosidine, CML, RAGE agonist activity and RAGE antagonist activity. Biological proteins and carbohydrates used are as follows:
In the same manner as in Test Example 4, except that the low molecular weight fraction prepared as mentioned above was used as a sample, quantitative determination of 3-DG was performed. In the same manner as in Test Example 4, except that the high molecular weight fraction was filtered through a 0.2 μm filter and the filtrate was used as a sample, fluorescent AGEs, pentosidine, CML, RAGE agonist activity and RAGE antagonist activity were evaluated.
Collagen, carbohydrates and a phosphate buffer solution were charged in a 50 mL polypropylene centrifuge tube in each amount shown in Table 14, followed by sealing and stirring, and then the mixture was reacted in an incubator at 37° C. for 42 days. Next, the reactant was fractionated by centrifugation at 3,000 rpm for 3 hours using an ultrafiltration unit (VIVA SPIN 20, manufactured by Sartorius Corporation). The obtained low molecular weight fraction was used as a sample for determination of 3-DG. Meanwhile, 0.4 g of a high molecular weight fraction and 8 mL of 6N hydrochloric acid were charged in an ampule and the air in the ampule was replaced with nitrogen, and then hydrolysis was performed at 110° C. for 16 hours in a heat block. After reaction, 8 mL of 5N sodium hydroxide was added, and pH was adjusted using 1N hydrochloric acid and 1N sodium hydroxide to make pH within a range of 7.2 to 7.6. […]

For a further assay, the system named is pentosidine. Nature of the assay: Quantitative determination of pentosidine (FSK Pentosidine kit) after reaction at 120° C. for 60 minutes. The class given is biochemical. The conditions noted are these: Test Example 1; for Pentosidine: lysine + arginine 0.2 g each, carbohydrate 3.40 g each, 120° C., 60 minutes. The procedure: Amino acids, carbohydrates and a phosphate buffer solution were charged in a 30 mL glass test tube in each amount shown in Table 1, followed by sealing and stirring. […] The filtrate thus obtained was used as a sample. The amino acids and carbohydrates used are as follows. Using a pentosidine measurement kit “FSK Pentosidine (registered trademark)” (manufactured by Fushimi Pharmaceutical Co., Ltd.), quantitative determination of pentosidine was performed. Thirty (30) or more minutes before use, reagents and pentosidine solid-phase plates were put to room temperature. After dilution of the sample, a 50 μL aliquot of the sample was dispensed to a pentosidine solid plate attached to the kit, and 50 μL of a first antibody solution was dispensed into wells other than the wells for measurement of reagent blank value. After the sample and the antibody solution were mixed by shaking the plate at 300 rpm for 1 minute, the solution was reacted at 37° C. for 1 hour. Next, the reaction solution was discarded, and 200 μL of rinsing fluid was dispensed to wash the plate. The washing was performed for 3 times. After liquid on the plate was removed, 100 μL of a second antibody solution was dispensed into wells other than the wells for measurement of reagent blank value. After the solution was mixed by shaking the plate at 300 rpm for 1 minute, the solution was reacted at 25° C. for 1 hour. Then, the reaction solution was discarded, and the plate was washed for 3 times with 200 μL of rinsing fluid again. Liquid on the plate was removed, and 100 μL of a color coupler was dispensed and left to stand for 10 minutes under a light shielding condition. Finally, 100 μL of a reaction stop solution was dispensed, and within 10 minutes after the dispensing, measurement was performed at main wavelength 450 nm/reference wavelength 630 nm using a micro-plate reader. The concentration of pentosidine was determined using the calibration curve of a pentosidine standard solution, based on measurement values of the sample.

[1] abbreviates: Test Example 4, amino acid + carbohydrate, mixture of sample and AGE-BSA, amount of protein 100 μg/mL, relative to control (AGE-BSA) = 1.
Setting [2] is: Test Example 5, bovine serum albumin + carbohydrate, mixture of sample and AGE-BSA, protein 100 μg/mL, relative to control (AGE-BSA) = 1.
Setting [3] is: Test Example 5, human serum albumin + carbohydrate, mixture of sample and AGE-BSA, protein 100 μg/mL, relative to control (AGE-BSA) = 1.
[4] abbreviates: Test Example 5, γ-globulin + carbohydrate, mixture of sample and AGE-BSA, protein 10 μg/mL, relative to control (AGE-BSA) = 1.
The mark [5] stands for this setting: Test Example 6, collagen + carbohydrate, mixture of sample and AGE-BSA, protein 10 μg/mL, relative to control (AGE-BSA) = 1.

The structures appear in SMILES notation.

Results on five compounds are retold here after US20130287890A1, “INHIBITOR OF THE PRODUCTION OF ADVANCED GLYCATION END PRODUCTS” (UENO FINE CHEMICALS INDUSTRY, LTD., priority 2012, published 2013).

T1 sequence (Q15109 23-404): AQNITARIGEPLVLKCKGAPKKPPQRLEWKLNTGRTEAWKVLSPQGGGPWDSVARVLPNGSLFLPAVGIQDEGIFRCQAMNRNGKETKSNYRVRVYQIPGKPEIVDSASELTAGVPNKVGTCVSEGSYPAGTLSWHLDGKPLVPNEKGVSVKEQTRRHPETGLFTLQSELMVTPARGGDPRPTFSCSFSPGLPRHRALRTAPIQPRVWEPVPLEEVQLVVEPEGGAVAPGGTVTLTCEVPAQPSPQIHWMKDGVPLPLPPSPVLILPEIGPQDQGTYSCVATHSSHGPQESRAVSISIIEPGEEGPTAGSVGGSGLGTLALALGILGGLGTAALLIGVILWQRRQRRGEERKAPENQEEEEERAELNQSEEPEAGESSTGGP

Regarding `O=C[C@H](O)[C@@H](O)[C@H](O)[C@H](O)CO` [Glucose], the RAGE antagonist activity amounted to 0.56 at human RAGE (setting [1]); 1.08 at human RAGE (setting [2]); 1.20 on human RAGE (setting [3]); 1.07 on human RAGE (setting [4]); 2.85 at human RAGE (setting [5]).

With `OC[C@H]1O[C@@](CO)(O[C@H]2O[C@H](CO)[C@@H](O)[C@H](O)[C@H]2O)[C@@H](O)[C@@H]1O` [Sucrose, reference compound], the Pentosidine in the assay on pentosidine was 8.4 nmol/1 g of amino acid.

As to `O=C(CO)[C@@H](O)[C@H](O)[C@H](O)CO` [Fructose], the RAGE antagonist activity on human RAGE (setting [1]) was 0.70; at human RAGE (setting [2]), 1.15; on human RAGE (setting [3]), 1.33; at human RAGE (setting [4]) it was 1.08; on human RAGE (setting [5]), 2.49.

Regarding `OC[C@@H](O)[C@@H](O)[C@H](O)[C@@H](O)CO` [Sorbitol], the RAGE antagonist activity at human RAGE (setting [1]) is given as 0.66; at human RAGE (Test Example 4, amino acid, compared with the test section 2 containing fructose), “decreased”; at human RAGE (setting [2]), 1.08; on human RAGE (Test Example 5, bovine serum albumin, human serum albumin, γ-globulin, compared with sections containing glucose), “decreased”; at human RAGE (setting [3]), 1.01; at human RAGE (Test Example 5, test sections 3 and 6 (bovine serum albumin, human serum albumin), compared with sections containing fructose) it was “decreased”. For the same compound, the RAGE antagonist activity was 0.90 on human RAGE (setting [4]); 1.22 on human RAGE (setting [5]); “decreased” at human RAGE (Test Example 6, collagen, compared with sections containing glucose and fructose).

Take `OC[C@@H](O)[C@@H](O[C@H]1O[C@H](CO)[C@@H](O)[C@H](O)[C@H]1O)[C@H](O)[C@@H](O)CO` [Maltitol]: the production of pentosidine result with pentosidine (amino acids, compared with the test section 1 containing only sucrose) is reported as “decreased”. For the same compound, in the assay on pentosidine, the Pentosidine was 3.4 nmol/1 g of amino acid.
